Patent publication US8608961B2, “Method for affinity chromatography of antithrombin III” (Aventis Pharma S.A., priority 2005, dated 2013)

System: factor Xa
Assay: anti-Xa activity of fractions separated by ATIII affinity chromatography
Assay type: biochemical
Conditions: fractions of LMWH (hexasaccharides) separated on ATIII affinity column 1 (protection: enoxaparin) or column 2 (protection: heparin); hexasaccharide for comparison
Description: The composition of the elution fractions may then be analyzed according to methods well known to those skilled in the art. Thus, if the fractions analyzed comprise oligosaccharides, those skilled in the art may use the analytical methods described in the prior art: for example and in a nonlimiting manner, capillary electrophoresis, MALDI-TOF mass spectrophotometry, high performance liquid chromatography. Those skilled in the art may also use a biological assay, such as the factor Xa inhibition assay.
In order to corroborate the structural analysis, the anti-Xa activities of the fractions having affinity and not having affinity, separated in column 1 (protection: enoxaparin), were determined.

## ΔUA-(1→4)α-GlcNAc(6S)-(1→4)β-GlcA-(1→4)α-GlcNS(NS,3,6S)-(1→4)β-IdA2S-(1→4)α-GlcNS(NS,6S)
  anti-Xa activity: 650-700 IU/mg
